Test results from ChEMBL document CHEMBL1201862, “PubChem BioAssay data set” (2004).
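Each compound was tested at five concentrations against cells in 96-well plates for 48 hours. GI50 = concentration required for 50% inhibition of growth.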 Active and inactive are the calls of the source. Rule as the data show it: active = GI50 up to about 1.1 µM and inactive = higher.

Legend:
Assay in all cases: NCI-60 cell line screen, 48 h
RPMI-8226 = system: RPMI-8226
NCI-H522 = system: NCI-H522
COLO 205 = system: COLO 205
HOP-62 = system: HOP-62
ACHN = system: ACHN
UACC-62 = system: UACC-62
LOX IMVI = system: LOX IMVI
UO-31 = system: UO-31
HCT-15 = system: HCT-15
SNB-19 = system: SNB-19
CAKI-1 = system: CAKI-1
A498 = system: A498
SF-295 = system: SF-295
HCT-116 = system: HCT-116
RXF 393 = system: RXF 393
SNB-75 = system: SNB-75
SK-MEL-5 = system: SK-MEL-5

Measured: GI50

O=C(O)CCCSC(=O)Nc1ccc(/N=N/c2ccccc2)cc1
> 100 µM: HCT-15
inactive: RPMI-8226 > 100 µM | NCI-H522 > 100 µM | COLO 205 > 100 µM | HOP-62 > 100 µM | ACHN > 100 µM | UACC-62 > 100 µM | LOX IMVI > 100 µM | UO-31 > 100 µM | SNB-19 > 100 µM | CAKI-1 > 100 µM | A498 > 100 µM | SF-295 > 100 µM | HCT-116 > 100 µM | RXF 393 > 100 µM

O=C(/C=C/c1ccccc1Cl)c1cccc2ccccc12
inactive: SNB-75 6.97 µM | RPMI-8226 17.2 µM | NCI-H522 6.65 µM | COLO 205 19 µM | HOP-62 14.3 µM | SK-MEL-5 19.4 µM | ACHN 16.7 µM | UACC-62 15.2 µM | LOX IMVI 11.4 µM | UO-31 9.2 µM | SNB-19 4.69 µM | CAKI-1 12.5 µM | A498 14.4 µM | SF-295 12.5 µM | HCT-116 3.71 µM | RXF 393 14 µM
3.75 µM: HCT-15

CCCCCCCCCCCCCC(=O)OCC1OC(n2cc(F)c(=O)[nH]c2=O)C(N)C(OC(=O)CCCCCCCCCCCCC)C1O (stereo not drawn)
> 100 µM: HCT-15
inactive: SNB-75 > 100 µM | RPMI-8226 > 100 µM | NCI-H522 > 100 µM | COLO 205 > 100 µM | HOP-62 > 100 µM | SK-MEL-5 > 100 µM | ACHN > 100 µM | UACC-62 > 100 µM | LOX IMVI > 100 µM | UO-31 > 100 µM | SNB-19 > 100 µM | CAKI-1 > 100 µM | A498 > 100 µM | SF-295 > 100 µM | HCT-116 > 100 µM | RXF 393 > 100 µM

C[C@]12CC[C@H](OC(=O)Cc3ccc(N(CCCl)CCCl)cc3)CC1CC[C@@H]1C2CC[C@]2(C)NC(=O)CCC12 (stereo partly drawn)
13.9 µM: HCT-15
inactive: SNB-75 10.1 µM | RPMI-8226 4.16 µM | NCI-H522 10.7 µM | COLO 205 5.4 µM | HOP-62 > 10 µM | SK-MEL-5 15.6 µM | ACHN 4.04 µM | UACC-62 6.68 µM | LOX IMVI 13.2 µM | UO-31 29.3 µM | SNB-19 13 µM | CAKI-1 3.92 µM | A498 18.9 µM | SF-295 11.8 µM | HCT-116 5.11 µM | RXF 393 7.74 µM

CC(=O)O[C@H]1C(=O)[C@@]2(C)C(C(OC(=O)c3ccccc3)C3[C@@H](O)C(OC(=O)[C@@H](O)[C@H](NC(=O)c4ccccc4)c4ccc(C(F)(F)F)cc4)C(C)=C1C3(C)C)[C@]1(OC(C)=O)CO[C@@H]1C[C@@H]2O (stereo partly drawn)
inactive: SNB-75 7.71 µM | RPMI-8226 10.3 µM | NCI-H522 7.59 µM | COLO 205 9.55 µM | HOP-62 > 25 µM | SK-MEL-5 8.26 µM | ACHN > 25 µM | UACC-62 19.2 µM | LOX IMVI 16.1 µM | UO-31 18.1 µM | SNB-19 > 25 µM | CAKI-1 > 25 µM | SF-295 > 25 µM | HCT-116 9.1 µM | RXF 393 14.3 µM
> 25 µM: HCT-15

Cc1cc(-c2ccccc2)cc2[n+]1CC=C2.[O-][Cl+3]([O-])([O-])[O-]
inactive: SNB-75 35.2 µM | NCI-H522 39.6 µM | COLO 205 > 100 µM | HOP-62 > 100 µM | ACHN 51.4 µM | LOX IMVI > 100 µM | UO-31 39.4 µM | SNB-19 > 100 µM | CAKI-1 > 100 µM | SF-295 > 100 µM | HCT-116 > 100 µM | RXF 393 46.1 µM

CC1(C)OC2C(CCP(=O)(O)O)OC(c3nc(C(N)=O)cs3)C2O1 (stereo not drawn)
> 100 µM: HCT-15
inactive: SNB-75 > 100 µM | RPMI-8226 > 100 µM | NCI-H522 > 100 µM | COLO 205 > 100 µM | ACHN > 100 µM | UACC-62 > 100 µM | LOX IMVI > 100 µM | UO-31 > 100 µM | SNB-19 > 100 µM | CAKI-1 > 100 µM | A498 > 100 µM | HCT-116 > 100 µM | RXF 393 > 100 µM

COc1ccc(C(=O)C2=NON3OC23C(=O)c2ccc(OC)cc2)cc1 (stereo not drawn)
inactive: SNB-75 24.7 µM | RPMI-8226 3.37 µM | NCI-H522 1.82 µM | COLO 205 7.62 µM | HOP-62 > 100 µM | SK-MEL-5 14.1 µM | ACHN 17.5 µM | UACC-62 17.8 µM | LOX IMVI 5.58 µM | UO-31 14.1 µM | SNB-19 15.9 µM | CAKI-1 2.81 µM | A498 13.7 µM | SF-295 19.2 µM | HCT-116 7.26 µM | RXF 393 4.09 µM
15.5 µM: HCT-15

CCOP(=O)(OCC)/C(C#N)=C\c1ccsc1
> 100 µM: HCT-15
inactive: SNB-75 > 100 µM | RPMI-8226 > 100 µM | NCI-H522 > 100 µM | COLO 205 > 100 µM | HOP-62 > 100 µM | SK-MEL-5 > 100 µM | ACHN > 100 µM | UACC-62 > 100 µM | LOX IMVI > 100 µM | UO-31 > 100 µM | SNB-19 > 100 µM | CAKI-1 > 100 µM | SF-295 > 100 µM | HCT-116 > 100 µM | RXF 393 > 100 µM

CC(C)(CN1CCCCC1)C(=O)/C=C/c1ccc(Br)cc1
active: CAKI-1 0.887 µM
inactive: SNB-75 5.89 µM | RPMI-8226 3.07 µM | NCI-H522 1.82 µM | COLO 205 2.25 µM | HOP-62 3.85 µM | SK-MEL-5 4.67 µM | ACHN 3.4 µM | UACC-62 6.56 µM | LOX IMVI 2.03 µM | SNB-19 2.01 µM | A498 2.58 µM | SF-295 5.09 µM | HCT-116 2.77 µM | RXF 393 1.35 µM

Cc1cc(C)c2[s+]snc2c1
inactive: SNB-75 > 100 µM | NCI-H522 31.1 µM | COLO 205 > 100 µM | HOP-62 82.4 µM | SK-MEL-5 > 100 µM | ACHN > 100 µM | UACC-62 36.6 µM | LOX IMVI 37.8 µM | UO-31 39.5 µM | SNB-19 > 100 µM | CAKI-1 93.8 µM | A498 37.7 µM | SF-295 > 100 µM | HCT-116 39.3 µM | RXF 393 37.4 µM

O=C1CC2CCCC23CC2(CCN13)OCCO2 (stereo not drawn)
inactive: SNB-75 > 100 µM | RPMI-8226 > 100 µM | NCI-H522 > 100 µM | COLO 205 > 100 µM | HOP-62 > 100 µM | SK-MEL-5 > 100 µM | ACHN > 100 µM | UACC-62 > 100 µM | LOX IMVI > 100 µM | UO-31 > 100 µM | SNB-19 > 100 µM | CAKI-1 > 100 µM | A498 > 100 µM | SF-295 > 100 µM | HCT-116 > 100 µM | RXF 393 > 100 µM

COC(=O)[C@@H](C)[C@H]1CC[C@@](C)(CCC2=C(C)CC3C=C(C)CCC3C2(C)C)OO1 (stereo partly drawn)
inactive: SNB-75 1.57 µM | RPMI-8226 1.65 µM | COLO 205 1.66 µM | HOP-62 2.06 µM | SK-MEL-5 1.49 µM | ACHN 1.53 µM | UACC-62 1.94 µM | UO-31 1.45 µM | SNB-19 1.72 µM | CAKI-1 1.34 µM | A498 1.8 µM | SF-295 1.79 µM | HCT-116 1.69 µM | RXF 393 1.37 µM
1.31 µM: HCT-15
active: NCI-H522 0.167 µM
